In patent US20130337564A1, “Treatment of Pluripotent Cells” (Janssen Biotech, Inc., priority 2012, published 2013):
Values joined by “and” are separate entries in the source; they are usually repeats but may differ in a detail not shown here. Equal values may be shown once.

Key:
[1] = tested on: human embryonic stem cells (H9 or H1 lines); experiment: Plate reader (MTS) proliferation assay; assay type: cell-based; details: for Average (of Raw Data): plate reader raw signal, mean of replicate wells; for activity at 10 µM: Homo sapiens, Embryonic stem cell, 96 h; for activity at 10 µM / % Control Value (proliferation): 10 μM test compound with 100 ng/ml activin A on days 1-2, MTS OD490 on day 4, vs Activin A/Wnt3a positive control, strong and moderate hits; for Average: average of replicate raw data; for Raw Data: replicate wells, plate reader proliferation screen of GSK-3B inhibitors
Outline: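 H9 or H1 cells on Matrigel, washed, then given DMEM:F12 with 0.5% FCS, 100 ng/ml activin A and 10 μM compound (days 1–2), then 2% FCS plus activin A (days 3–4). MTS added day 4, OD490 read after 1.5–4 h at 37 °C; triplicates as percent of activin A/Wnt3a control.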

[2] = tested on: human embryonic stem cells (H9 line); experiment: High content screening assay: cell number (proliferative response); assay type: cell-based; details: for fold induction at 10 µM: Homo sapiens, Embryonic stem cell, read-out: Proliferative Response, Fold over Wnt 3a/AA control
Outline: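 H9 hESCs on MATRIGEL treated days 1-2 with 10 μM compound in DMEM:F12, 0.5% FCS, 100 ng/ml activin A; days 3-4 with 2% FCS plus activin A without compound. Fixed cells immunostained for Sox17 or HNF-3beta with Draq5 nuclear counterstain. Cell number and staining intensity quantified by high-content imaging, 12 fields/well.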

[3] = proliferation of human embryonic stem cells
[4] = cell number in the wells analysed for HNF-3b expression
[5] = cell number in the wells analysed for SOX-17 expression
[6] = 10 μM test compound with 100 ng/ml activin A on days 1-2, H9, total cell number by IN Cell Analyzer, strong and moderate hits

Which “Average (of Raw Data)” value [1, 3] does the source give for `COc1ccccc1C1=C(c2cn(CCCNC(=O)OC(C)(C)C)c3ncccc23)C(=O)NC1=O` [Compound 26, 1,1-Dimethylethyl [3-(3-{4-[2-(methyloxy)phenyl]-2,5-dioxo-2,5-dihydro-1H-pyrrol-3-yl}-1H-pyrrolo[2,3-b]pyridin-1-yl)propyl]carbamate] here?
The value was 0.3611.

What about the “Proliferative Response Total cells” value [2, 4] of the same compound?
The value was 136.

What about the “Proliferative Response Total cells” value [2, 5] of the same compound?
The value was 109.

With `O=C1NC(=O)C(c2cn(CCOCCOCCNC3CCCc4ccccc43)c3ccccc23)=C1c1cn(CCNC2CCCc3ccccc32)c2ccccc12` (stereo not shown) [Compound 144, 3-{1-[2-(1,2,3,4-Tetrahydronaphthalen-1-ylamino)ethyl]-1H-indol-3-yl}-4-(1-{2-[(2-{[2-(1,2,3,4-tetrahydronaphthalen-1-ylamino)ethyl]oxy}ethyl)oxy]ethyl}-1H-indol-3-yl)-1H-pyrrole-2,5-dione] as the compound, how does the activity at 10 µM [1] read?
The activity at 10 µM was 84%.

What about the Average [1] of the same compound?
The Average was 1.2160.

And the “Proliferative Response Total cells” value [2, 4]?
Its value is 6833.

And the “Proliferative Response Total cells” value [2, 5]?
Its value is 7990.

What does the source list for `O=C1NC(=O)C2=C1c1cn(c3ccccc13)CCOCCOCCn1cc2c2ccccc21` [Compound 164, 6,7,9,10,12,13-Hexahydro-20H-5,23:14,19-di(metheno)dibenzo[h,n]pyrrolo[3,4-k][1,4,7,16]dioxadiazacyclooctadecine-20,22(21H)-dione]?
% Control Value (proliferation) [1]: 68.2%; Average [1]: 0.6350; Raw Data [1]: 0.6923 and 0.5994 and 0.6134; Proliferative Response Total cells [2, 4]: 67; Proliferative Response Fold over Wnt 3a/AA control ([2]; cell number in the wells analysed for HNF-3b expression, normalised to Wnt 3a/AA control): 0.05259 fold; Proliferative Response Total cells [2, 5]: 12; Proliferative Response Fold over Wnt 3a/AA control ([2]; cell number in the wells analysed for SOX-17 expression, normalised to Wnt 3a/AA control): 0.007385 fold

With `O=C1NC(=O)C(c2cn(CCCO)c3ncccc23)=C1c1cn(CCCO)cn1` [Compound 182, 3-[1-(3-Hydroxypropyl)-1H-imidazol-4-yl]-4-[1-(3-hydroxypropyl)-1H-pyrrolo[2,3-b]pyridin-3-yl]-1H-pyrrole-2,5-dione] as the compound, how does the Average [1] read?
Its Average is 0.2828.

And the “Proliferative Response Total cells” value [2, 4]?
Its value is 425.

What about the “Proliferative Response Total cells” value [2, 5] of the same compound?
The value was 20.

What does the source list for `O=C1NC(=O)C2=C1Nc1cccc(c1)OCCC/C=C\CCCOc1cccc2c1` [Compound 233, (11Z)-8,9,10,13,14,15-Hexahydro-2,6:17,21-di(metheno)pyrrolo[3,4-h][1,15,7]dioxazacyclotricosine-22,24(1H,23H)-dione]?
activity at 10 µM [1]: 93%; Average [1]: 1.3325; Proliferative Response Total cells [2, 4]: 4357; Proliferative Response Total cells [2, 5]: 6470

For `COc1ccccc1C1=C(c2cn(-c3ccc4ccccc4c3)c3ncccc23)C(=O)NC1=O` [Compound 23, 3-[2-(Methyloxy)phenyl]-4-(1-naphthalen-2-yl-1H-pyrrolo[2,3-b]pyridin-3-yl)-1H-pyrrole-2,5-dione], which “Average (of Raw Data)” value [1, 3] is on record?
The value was 0.4714.

What about the “Proliferative Response Total cells” value [2, 4] of the same compound?
The value was 399.

And the “Proliferative Response Total cells” value [2, 5]?
Its value is 88.

Which results are given for `O=C1NC(=O)C(c2nn(CCO)c3ccccc23)=C1c1cn(-c2cncnc2)c2ccccc12` [Compound 226, 3-[1-(2-Hydroxyethyl)-1H-indazol-3-yl]-4-(1-pyrimidin-5-yl-1H-indol-3-yl)-1H-pyrrole-2,5-dione]?
activity at 10 µM [1]: 120%; Average [1]: 1.6825; fold induction at 10 µM [2, 6]: 0.634; Proliferative Response Total cells [2, 4]: 7650; Proliferative Response Total cells [2, 5]: 9716

Which activity at 10 µM [1] does the source give for `O=C1NC(=O)C(c2cn(-c3cncnc3)c3ccccc23)=C1c1cn(CCO)c2ccccc12` [Compound 230, 3-[1-(2-Hydroxyethyl)-1H-indol-3-yl]-4-(1-pyrimidin-5-yl-1H-indol-3-yl)-1H-pyrrole-2,5-dione] here?
The activity at 10 µM was 147%.

What about the Average [1] of the same compound?
Its Average is 2.0358.

And the fold induction at 10 µM [2, 6]?
The fold induction at 10 µM was 1.31.

What about the “Proliferative Response Total cells” value [2, 4] of the same compound?
Its value is 16884.

And the “Proliferative Response Total cells” value [2, 5]?
The value was 20079.

`O=C1NC(=O)C(c2cn(CCCO)c3ncccc23)=C1c1cc(Cl)sc1Cl` [Compound 18, 3-(2,5-Dichlorothiophen-3-yl)-4-[1-(3-hydroxypropyl)-1H-pyrrolo[2,3-b]pyridin-3-yl]-1H-pyrrole-2,5-dione] was tested. Which “Average (of Raw Data)” value [1, 3] did it give?
Its value is 0.1442.

What about the “Proliferative Response Total cells” value [2, 4] of the same compound?
The value was 4.

And the “Proliferative Response Total cells” value [2, 5]?
The value was 3.

Which results are given for `O=C1NC(=O)C(c2cn(CCCO)c3ncccc23)=C1c1cccs1` [Compound 17, 3-[1-(3-Hydroxypropyl)-1H-pyrrolo[2,3-b]pyridin-3-yl]-4-thiophen-2-yl-1H-pyrrole-2,5-dione]?
Average (of Raw Data) [1, 3]: 0.4114; Proliferative Response Total cells [2, 4]: 83; Proliferative Response Total cells [2, 5]: 158

Which activity at 10 µM [1] does the source give for `COC(=O)c1cncc(-n2cc(C3=C(c4nn(CCO)c5ccccc45)C(=O)NC3=O)c3cc(Cl)ccc32)c1` [Compound 150, Methyl 5-(5-chloro-3-{4-[1-(2-hydroxyethyl)-1H-indazol-3-yl]-2,5-dioxo-2,5-dihydro-1H-pyrrol-3-yl}-1H-indol-1-yl)pyridine-3-carboxylate] here?
Its activity at 10 µM is 63.3%.

And the Average [1]?
Its Average is 0.9475.

What about the “Proliferative Response Total cells” value [2, 4] of the same compound?
Its value is 6992.

What about the “Proliferative Response Total cells” value [2, 5] of the same compound?
The value was 7958.

With `Cn1ccc(C2=C(c3cn(CCCO)c4ncccc34)C(=O)NC2=O)n1` [Compound 209] as the compound, how does the activity at 10 µM [1] read?
Its activity at 10 µM is 67.4%.

And the Average [1]?
Its Average is 1.0739.

What about the “Proliferative Response Total cells” value [2, 4] of the same compound?
Its value is 4209.

And the “Proliferative Response Total cells” value [2, 5]?
The value was 2473.

How did the “% Control Value (proliferation)” value [1] turn out when `O=C1NC(=O)C2=C1c1cn(c3ncccc13)CCOCCOCCOCCOCCn1cc2c2cccnc21` [Compound 169] was run?
Its value is 76.7%.

What about the Average [1] of the same compound?
Its Average is 0.7138.

What about the “Average (of Raw Data)” value [1, 3] of the same compound?
The value was 0.3354.

What about the “% Control” value ([1]; proliferation of human embryonic stem cells, AA/Wnt3a = 100.0, no cells = 0.0) of the same compound?
The value was 24.4%.

What about the “Raw Data” value [1] of the same compound?
The value was 0.5876 and 0.6384 and 0.9154.

And the “Proliferative Response Fold over Wnt 3a/AA control” value [2, 6]?
The value was 1.0764 Fold over Wnt 3a/AA control.

Which activity at 10 µM [1] does the source give for `O=C(Nc1ccc(C(=O)N2CC3CSCCN3Cc3ccccc32)c(Cl)c1)c1cc(Cl)cc(Cl)c1` (stereo not shown) [Compound 166, 3,5-Dichloro-N-[3-chloro-4-(3,4,12,12a-tetrahydro-1H-[1,4]thiazino[3,4-c][1,4]benzodiazepin-11(6H)-ylcarbonyl)phenyl]benzamide] here?
The activity at 10 µM was 180%.

What about the Average [1] of the same compound?
Its Average is 1.6794.

And the fold induction at 10 µM [2, 6]?
Its fold induction at 10 µM is 0.621.

And the “Proliferative Response Total cells” value [2, 4]?
Its value is 787.

And the “Proliferative Response Total cells” value [2, 5]?
Its value is 562.

With `CC(C)(O)CCn1nc(C2=C(c3cn(-c4cccnc4)c4ccccc34)C(=O)NC2=O)c2ccccc21` [Compound 223, 3-[1-(3-Hydroxy-3-methylbutyl)-1H-indazol-3-yl]-4-(1-pyridin-3-yl-1H-indol-3-yl)-1H-pyrrole-2,5-dione] as the compound, how does the activity at 10 µM [1] read?
Its activity at 10 µM is 129%.

What about the Average [1] of the same compound?
Its Average is 1.7982.

What about the fold induction at 10 µM [2, 6] of the same compound?
The fold induction at 10 µM was 0.948.

And the “Proliferative Response Total cells” value [2, 4]?
Its value is 9871.

What about the “Proliferative Response Total cells” value [2, 5] of the same compound?
Its value is 14529.

Which results are given for `COc1ccccc1C1=C(c2cn(CCCNC(C)=O)c3ncccc23)C(=O)NC1=O` [Compound 27, N-[3-(3-{4-[2-(Methyloxy)phenyl]-2,5-dioxo-2,5-dihydro-1H-pyrrol-3-yl}-1H-pyrrolo[2,3-b]pyridin-1-yl)propyl]acetamide]?
Average (of Raw Data) [1, 3]: 0.1152; Proliferative Response Total cells [2, 4]: 5; Proliferative Response Total cells [2, 5]: 5

Which activity at 10 µM [1] does the source give for `OCCC#Cc1nc(-c2ccc(F)cc2)c(-c2ccncc2)n1CCCc1ccccc1` [Compound 158, 4-[4-(4-Fluorophenyl)-1-(3-phenylpropyl)-5-pyridin-4-yl-1H-imidazol-2-yl]but-3-yn-1-ol] here?
The activity at 10 µM was 84.7%.

What about the Average [1] of the same compound?
The Average was 1.2242.

What about the “Proliferative Response Total cells” value [2, 4] of the same compound?
The value was 6058.

What about the “Proliferative Response Total cells” value [2, 5] of the same compound?
The value was 6376.

Which results are given for `O=C1NC(=O)C(c2cn(CCOCCOCCO)c3ccccc23)=C1c1cn(CCO)c2ccccc12` [Compound 110, 3-[1-(2-Hydroxyethyl)-1H-indol-3-yl]-4-{1-[2-({2-[(2-hydroxyethyl)oxy]ethyl}oxy)ethyl]-1H-indol-3-yl}-1H-pyrrole-2,5-dione]?
activity at 10 µM [1]: 161%; Average [1]: 1.0686
